In patent US6127541A, “Imidazoquinazoline derivatives” (Kyowa Hakko Kogyo Co., Ltd., priority 1996, dated 2000):
Structures can show the parent of a compound that is named as a salt. Blank lines part the entries; values can stand above or below the compound they belong to.

Assays:
rats [1] = experiment: Hypotensive effect in anesthetized rats (mean blood pressure); type: in vivo, male Sprague-Dawley rat; settings: rat, 10 mg/kg, i.d. N = 2; from value before administration (100%)
Protocol: Test Example 2. The Hypotensive Effect in Rats
After a male Spraque-Dawley rat (two […]/group) anesthetized with urethane was fixed in the supine position, a cannula was inserted into trachea and the rat was artificially ventilated under the conditions of a tidal volume of […] and 60 breathes/min. The carotid artery and the duodenum were cannulated for measuring blood pressure and administering a drug, respectively. The drug was dissolved in distilled water and administered duodenally using the above cannula. Mean blood pressure (mBP) until […] after the drug-administration was measured and the maximum lowering rate (%) from the value before the drug-administration (100%) was determined. No change of mBP was observed during 30 minutes in case of administrating distilled water.

[2] = molecular target: T1, PDE V (cGMP-specific PDE) (Canis lupus familiaris, UniProt O77746); experiment: Inhibitory activity on PDE V derived from canine tracheal smooth muscle; type: biochemical; settings: Compound conc.: 1 nM; substrate 1.0 μM [3H]cGMP; read-out: PDE V inhibitory activity, Inhibition rate (%)
T1 construct: purified from canine tracheal smooth muscle; from tissue; host or cells: canine tracheal smooth muscle
Protocol: Hereinafter, PDE inhibitory activity and pharmacological activity of the representative Compounds (I) are described in more detail by Test Examples. Test Example 1. The inhibitory activity on PDE derived from canine tracheal smooth muscle
(1) Purification of an Enzyme
According to the method of Torphy et al. [Mol. Pharmacol., 37, 206 (1990)], PDE V (cGMP-specific PDE) was purified from canine tracheal smooth muscle.
(2) Measurement of PDE Activity
The activity was measured based on the method of Kincaid et-al. [J. D. Corbin et al., Methods Enzymol., 159, 457(1988), Academic Press, New York]. The measurement was carried out using, as a substrate, 1.0 μM [^3 H]cGMP, and the reaction was carried out in a buffer having the following composition:
50 mM N,N-bis(2-hydroxyethyl)-2-aminoethanesulfonic acid (pH 7.2), 1 mM MgCl2, 0.1 mg/ml soybean trypsin inhibitor.
The reaction was started by addition of the enzyme and stopped by addition of hydrochloric acid after reacting for 10 to 30 minutes at 30° C. Thereafter, sodium hydroxide was added for neutralization and 5'-GMP was converted into guanosine using 5'-nucleotidase. The reaction solution was subjected to DEAE-Sephadex A-25 column. [^3 H]Guano sine was eluted with distilled water and the radioactivity was measured with a liquid scintillation counter. The inhibitor was dissolved in 1.7% DMSO.

rats [3] = experiment: Effect on developed cavernous pressure and duration of tumescence in rats; type: in vivo, male Sprague-Dawley rat; settings: 20 μg/rat, injected into the cavernous body; for DCP (developed cavernous pressure), Pre / DT (duration of tumescence), Pre: before administration; for DCP (developed cavernous pressure), 6-min / DT (duration of tumescence), 6-min: six minutes after administration
Protocol: Test Example 3. Effect of Developed Cavernous Pressure and Duration of Tumescence in Rats
A male Sprague-Dawley rat was anesthetized with urethane (1.3 g/kg) subcutaneously injected into the back of the neck. The perineal incision was performed and the right crus of the penis was exposed. For measurement of cavernous pressure, a needle (25G) attached to a polyethylene tube (PE50) filled with a heparin solution was inserted into the right crus. The polyethylene tube was connected to a pressure transducer (MPC-500, Millar Instruments) and cavernous pressure was amplified with an amplifier (AP-621G, Nihon Kohden) and then recorded on a pen recorder (LR4220, Yokokawa Denki). The abdomen was incised and cavernous nerves on the prostate was exposed. The nerve was placed on a bipolar tungsten electrode and stimulated by current pulses(frequency; 20 Hz, duration; 0.2 ms, strength; 3 to 5 V) for 50 seconds with an electric stimulator (SEN-3201, Nihon Koden) to induce increases in cavernous pressure. The test compounds were dissolved in distilled water (DW) or 0.01 N hydrochloric acid at a concentration of 1 mg/ml and injected into the cavernous body(0.02 ml/rat) with a needle (27G). Before(Pre) and six minutes after administration (6-min). of distilled water (DW) or the test compounds, the nerve was stimulated, and developed cavernous pressure (DCP) and the duration of tumescence (DT) were measured. DT was defined as the time from the start of stimulation to 50% of the peak cavernous pressure after the end of stimulation.

SMILES: CCn1c(=O)[nH]c2cc3c(NCc4ccc(NC)cc4)ncnc3cc21 [Compound 2, 3-Ethyl-8-(4-methylaminobenzylamino)-2,3-dihydro-1H-imidazo[4,5-g]quinazoline-2-one 2 hydrochloride]
Hypotensive activity, Maximum lowering rate (%) of mean blood pressure (rats [1]): 19.7%

SMILES: CCn1c(=O)[nH]c2cc3c(NCc4ccc(NCc5ccccc5)cc4)ncnc3cc21 [Compound 3, 8-(4-Benzylaminobenzylamino)-3-ethyl-2,3-dihydro-1H-imidazo[4,5-g]quinazoline-2-one 2 hydrochloride]
inhibition at 0.001 µM [2]: 62%

SMILES: CCNc1ccc(CNc2ncnc3cc4c(cc23)[nH]c(=O)n4CC)cc1 [Compound 6, 3-Ethyl-8-(4-ethylaminobenzylamino)-2,3-dihydro-1H-imidazo[4,5-g]quinazoline-2-one 2 hydrochloride]
inhibition at 0.001 µM [2]: 37%

SMILES: CCn1c(=O)[nH]c2cc3c(NCc4ccccc4N4CCSCC4)ncnc3cc21 [Compound 15, 3-Ethyl-8-(2-thiomorpholinobenzylamino)-2,3-dihydro-1H-imidazo[4,5-g]quinazoline-2-one 1 hydrochloride]
Hypotensive activity, Maximum lowering rate (%) of mean blood pressure (rats [1]): 19.8%

SMILES: CCCNc1ccc(CNc2ncnc3cc4c(cc23)[nH]c(=S)n4CC)cc1 [Compound 26, 3-Ethyl-8-(4-propylaminobenzylamino)-2,3-dihydro-1H-imidazo[4,5-g]quinazoline-2-thione 2 hydrochloride]
DCP (developed cavernous pressure), Pre (rats [3]): 21.5 mmHg | DT (duration of tumescence), Pre (rats [3]): 3.8 s | DCP (developed cavernous pressure), 6-min (rats [3]): 27.7 mmHg | DT (duration of tumescence), 6-min (rats [3]): 22.9 s

SMILES: CCn1c(=S)[nH]c2cc3c(NCc4ccccc4N4CCN(C)CC4)ncnc3cc21 [Compound 36, 3-Ethyl-8-[2-(4-methyl-1-piperazinyl)benzylamino]-2,3-dihydro-1H-imidazo[4,5-g]quinazoline-2-thione 3 hydrochloride]
Hypotensive activity, Maximum lowering rate (%) of mean blood pressure (rats [1]): 17.6%

SMILES: CCn1c(=S)[nH]c2cc3c(NCc4cccc(N5CCN(C)CC5)c4)ncnc3cc21 [Compound 40, 3-Ethyl-8-[3-(4-methyl-1-piperazinyl)benzylamino]-2,3-dihydro-1H-imidazo[4,5-g]quinazoline-2-thione 3 hydrochloride]
Hypotensive activity, Maximum lowering rate (%) of mean blood pressure (rats [1]): 16.1%

More lines, main results first:

inhibition at 0.001 µM [2]: 91%
SMILES: CCn1c(=S)[nH]c2cc3c(NCc4ccccc4NC)ncnc3cc21 [Compound 22, 3-Ethyl-8-(2-methylaminobenzylamino)-2,3-dihydro-1H-imidazo[4,5-g]quinazoline-2-thione 2 hydrochloride]

inhibition at 0.001 µM [2]: 88%
SMILES: CCn1c(=S)[nH]c2cc3c(NCc4ccc(NCc5ccccc5)cc4)ncnc3cc21 [Compound 24, 8-(4-Benzylaminobenzylamino)-3-ethyl-2,3-dihydro-1H-imidazo[4,5-g]quinazoline-2-thione 2 hydrochloride]

inhibition at 0.001 µM [2]: 97%
SMILES: CCNc1ccc(CNc2ncnc3cc4c(cc23)[nH]c(=S)n4CC)cc1 [Compound 27, 3-Ethyl-8-(4-ethylaminobenzylamino)-2,3-dihydro-1H-imidazo[4,5-g]quinazoline-2-thione 2 hydrochloride]

inhibition at 0.001 µM [2]: 97%
SMILES: CCn1c(=S)[nH]c2cc3c(NCc4ccccc4NCCO)ncnc3cc21 [Compound 30, 3-Ethyl-8-[2-(2-hydroxyethylamino)benzylamino]-2,3-dihydro-1H-imidazo[4,5-g]quinazoline-2-thione 2 hydrochloride]

inhibition at 0.001 µM [2]: 98%
SMILES: CCn1c(=S)[nH]c2cc3c(NCc4ccccc4N4CCOCC4)ncnc3cc21 [Compound 33, 3-Ethyl-8-(2-morpholinobenzylamino)-2,3-dihydro-1H-imidazo[4,5-g]quinazoline-2-thione 1 hydrochloride]

inhibition at 0.001 µM [2]: 95%
SMILES: CCn1c(=S)[nH]c2cc3c(NCc4ccccc4N4CCC(CO)CC4)ncnc3cc21 [Compound 34, 3-Ethyl-8-[2-(4-hydroxymethylpiperidino)benzylamino]-2,3-dihydro-1H-imidazo[4,5-g]quinazoline-2-thione 2 hydrochloride]
DCP (developed cavernous pressure), Pre (rats [3]): 23.9 ± 2.0 mmHg | DT (duration of tumescence), Pre (rats [3]): 3.3 ± 0.9 s | DCP (developed cavernous pressure), 6-min (rats [3]): 31.1 ± 4.7 mmHg | DT (duration of tumescence), 6-min (rats [3]): 16.9 ± 2.4 s

inhibition at 0.001 µM [2]: 95%
SMILES: CCn1c(=S)[nH]c2cc3c(NCc4ccccc4N4CCCCC4)ncnc3cc21 [Compound 35, 3-Ethyl-8-(2-piperidinobenzylamino)-2,3-dihydro-1H-imidazo[4,5-g]quinazoline-2-thione 2 hydrochloride]
DCP (developed cavernous pressure), Pre (rats [3]): 22.6 mmHg | DT (duration of tumescence), Pre (rats [3]): 1.6 s | DCP (developed cavernous pressure), 6-min (rats [3]): 21.2 mmHg | DT (duration of tumescence), 6-min (rats [3]): 8.1 s
